Results published in PubChem BioAssay (NCI).
“And” between values parts separate entries of the source, which are not always exact repeats. Identical values can stand only once.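 Compound exposure: 48 hours, 5 concentrations, 96-well plates. GI50 is the concentration that inhibits growth by half. TGI denotes the concentration required for complete inhibition of growth.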

What was measured:
Experiment in all cases: inhibition of tumour cell growth, NCI panel, 48 h
UACC-257 melanoma = system: UACC-257 melanoma
NCI-H522 lung = system: NCI-H522 lung
MOLT-4 leukemia = system: MOLT-4 leukemia
CAKI-1 renal = system: CAKI-1 renal
EKVX NSCLC = system: EKVX NSCLC
786-0 renal = system: 786-0 renal
SF-539 CNS = system: SF-539 CNS
K-562 leukemia = system: K-562 leukemia
COLO 205 colon = system: COLO 205 colon
IGROV1 ovarian = system: IGROV1 ovarian

SMILES	TGI (UACC-257 melanoma)	TGI (NCI-H522 lung)	TGI (MOLT-4 leukemia)	TGI (CAKI-1 renal)	TGI (EKVX NSCLC)	TGI (786-0 renal)	TGI (SF-539 CNS)	TGI (K-562 leukemia)	TGI (COLO 205 colon)	TGI (IGROV1 ovarian)	GI50 (UACC-257 melanoma)	GI50 (CAKI-1 renal)	GI50 (EKVX NSCLC)	GI50 (NCI-H522 lung)	GI50 (MOLT-4 leukemia)	GI50 (786-0 renal)	GI50 (SF-539 CNS)	GI50 (K-562 leukemia)	GI50 (COLO 205 colon)	GI50 (IGROV1 ovarian)
C=CCn1c2c(c3ccccc3c1=O)C(=O)c1ccccc1-2	> 100 µM	> 100 µM	16.8 µM	> 100 µM	> 100 µM	> 100 µM	> 100 µM	> 100 µM	> 100 µM	> 100 µM										
CN1CCN(CN2C(=O)C3C4C=CC(C3C2=O)C2C3C(=O)N(CN5CCN(C)CC5)C(=O)C3C42)CC1 (stereo not drawn)	84.4 µM and 54.3 µM and > 100 µM	39.6 µM and 25.4 µM	60.6 µM and 51.3 µM and 55.9 µM	> 100 µM	> 100 µM	34.3 µM and 40.3 µM and 36 µM	44.4 µM and 45.4 µM and 49.1 µM	81.4 µM and 55.6 µM and 58.2 µM	33.2 µM and 34.5 µM and 35.3 µM	> 100 µM	35.7 µM and 25 µM and 62.2 µM	44.8 µM and 33.6 µM and 70.6 µM	> 100 µM							
O=C(O)CSc1n[nH]c(-c2ccc(O)cc2)n1	> 100 µM	> 100 µM	> 100 µM	> 100 µM	> 100 µM	> 100 µM	> 100 µM	> 100 µM	> 100 µM	> 100 µM										
COc1cc(-c2nn(-c3ccc(NC(=O)c4ccc(Cl)c(Cl)c4)cc3)cc2-c2ccncc2)ccc1Cl	> 100 µM	> 100 µM	> 100 µM	> 100 µM	> 100 µM	4.59 µM	> 100 µM	> 100 µM	> 100 µM	> 100 µM	> 100 µM	3.67 µM	6.82 µM	> 100 µM	5.29 µM	2.05 µM	2.85 µM	4.05 µM	3.62 µM	> 100 µM
COc1cc(/C(C#N)=C/c2ccc3c(c2OC)OCO3)cc2c1OCO2	> 100 µM	0.283 µM	19.9 µM	> 100 µM	> 100 µM	21.5 µM	2.29 µM	> 32.9 µM	3.14 µM	42.3 µM	0.794 µM	0.0933 µM	0.652 µM	0.0324 µM	0.111 µM	0.2 µM	0.0964 µM	0.0358 µM	0.0941 µM	0.165 µM
CC1=C(C(=O)Nc2ccccc2C)C(c2ccccc2)C(C(=O)Nc2ccccc2C)=C(C)N1	> 100 µM	> 100 µM	53 µM	> 100 µM	> 100 µM	> 100 µM	> 100 µM	> 100 µM	74.2 µM	> 100 µM										
CCOc1ccccc1NC(=O)C(=O)CC(=O)c1c(C)n([O-])c2ccccc2[n+]1=O	> 100 µM	> 100 µM	> 100 µM	> 100 µM	> 100 µM	> 100 µM	> 100 µM	> 100 µM	> 100 µM	> 100 µM										
COc1cc(O)c([C@@H]2C[C@H](CCc3ccc(O)cc3)O[C@H](c3ccc(O)cc3)C2)c(O)c1C(=O)/C=C/c1ccc(O)cc1	13.2 µM	8.52 µM	4.24 µM	18.3 µM	16.7 µM	4.97 µM	4.98 µM	6.24 µM	5.4 µM	5.44 µM	3.82 µM	5.76 µM	4.1 µM	2.73 µM	1.44 µM	2.28 µM	2.23 µM	2.32 µM	2.51 µM	2.2 µM
CC1=C(C(=O)Nc2c(C)cccc2C)C(c2ccc3c(c2)OCO3)C(C(=O)Nc2c(C)cccc2C)=C(C)N1	32.3 µM	31.7 µM	61.5 µM	59 µM	53.3 µM	28.2 µM	37.7 µM	73 µM	47.1 µM	28.5 µM										
Cc1nc2c(nc1C)C(=O)c1cc(O)ccc1C2=O	> 78 µM	> 100 µM	> 100 µM	> 100 µM	> 100 µM	> 100 µM	> 100 µM	> 100 µM	45.2 µM	> 100 µM										
